Some test systems named below: Candida dubliniensis; Candida albicans 17-88; Pseudomonas aeruginosa; Candida parapsilosis; Candida albicans; Debaryomyces hansenii; Candida glabrata; Cutibacterium acnes; Candida krusei; Staphylococcus aureus MR; Candida tropicalis; Kluyveromyces lactis; Acinetobacter baumannii; Klebsiella pneumoniae; Enterobacter cloacae; Staphylococcus aureus.
What all share (test): ≥ marks a high value that may be exact or a test limit, other limits are often not marked, values filed in µg/mL are converted to µM
Experiment [1] has as its system Pseudomonas aeruginosa PAO1.
Experiment [2] concerns Enterococcus faecalis 1F-1.
Experiment [3] has as its system Proteus mirabilis ATCC 35659.
Experiment [4] deals with Salmonella enterica ATCC H9812.
The subject of experiment [5] is Bacillus subtilis ATCC 6051.
Experiment [6] has as its system Staphylococcus aureus ATCC 29213.
In experiment [7] the test system is Escherichia coli ATCC 25922.
The test system of experiment [8] is Bacillus licheniformis ATCC 14580.
The subject of experiment [9] is Bacillus amyloliquefaciens ATCC 23842.
Experiment [10] concerns Bacillus cereus ATCC 14579.
The test system of experiment [11] is Enterococcus faecium 5F-10.
The subject of experiment [12] is Staphylococcus aureus ATCC 25923.
Experiment [13] deals with Trichophyton rubrum ATCC 28189.
In experiment [14] the test system is Candida albicans ATCC 90028.
The subject of experiment [15] is Staphylococcus epidermidis ATCC 12228.
The test system of experiment [16] is Pseudomonas aeruginosa 21328.
Experiment [17] has as its system Pseudomonas aeruginosa CICC 11431.
Experiment [18] concerns Pseudomonas aeruginosa CICC 11421.
For experiment [19], the system named is Pseudomonas aeruginosa CICC 21630.
For experiment [20], the system named is Pseudomonas aeruginosa CICC 11411.
Experiment [21] relates to Pseudomonas aeruginosa CICC 10419.
Experiment [22] deals with Pseudomonas aeruginosa CICC 21625.
The subject of experiment [23] is Pseudomonas aeruginosa 25349.
Experiment [24] has as its system Pseudomonas aeruginosa ATCC 27853.
The subject of experiment [25] is Staphylococcus aureus ATCC 33592.
In experiment [26] the test system is Cutibacterium acnes ATCC 11827.
The test system of experiment [27] is Candida albicans NRRL Y-6359.
Experiment [28] has as its system Pseudomonas aeruginosa ATCC 19660.
Experiment [29] relates to Candida parapsilosis NRRL Y-1761.
Experiment [30] has as its system Acinetobacter baumannii ATCC 17978.
In experiment [31] the test system is Klebsiella pneumoniae ATCC 10031.
Experiment [32] deals with Staphylococcus epidermidis ATCC 51625.
The test system of experiment [33] is Cutibacterium acnes ATCC 6919.
Experiment [34] has as its system Candida parapsilosis NRRL Y-1763.
The subject of experiment [35] is Candida albicans NRRL Y-326.

Here are results for four compounds from DBAASP.

Values after ≈ are worked out from the molar mass of the structure shown. A value given as a limit tells only on which side of the number the result lay.

One may read the MIC as the smallest concentration in the dilution series that meets the test's criterion for growth inhibition. In the case of `CC(C)C[C@H](NC(=O)[C@H](CC(C)C)NC(=O)[C@@H](N)CCC(=O)O)C(=O)N[C@@H](CO)C(=O)N[C@@H](CCCN=C(N)N)C(=O)N[C@H](C(=O)O)C(C)C` [ELLSRV], the MIC in experiment [1] is above 179 µM; in [2], at least 179 µM; in experiment [3] it was at least 179 µM; in experiment [4], at least 89.4 µM; in [5], at least 179 µM; in experiment [6], above 179 µM. Besides, the minimal inhibitory concentration (MIC) in [7] was 89.4 µM (≈ 64 µg/mL); in [8], at least 179 µM; in [9], at least 179 µM; in experiment [10], at least 179 µM; in [11] it was at least 179 µM.
Turning to `CC[C@H](C)[C@H](NC(=O)[C@H](Cc1c[nH]c2ccccc12)NC(=O)[C@H](CCCCN)NC(=O)[C@H](Cc1cnc[nH]1)NC(=O)[C@H](Cc1ccccc1)NC(=O)[C@H](CCC(=O)O)NC(=O)[C@H](CCCN=C(N)N)NC(=O)[C@H](CC(C)C)NC(=O)[C@@H](N)Cc1ccccc1)C(=O)N[C@@H](CCC(=O)O)C(=O)N[C@@H](CCCN=C(N)N)C(=O)N[C@H](C(=O)N[C@H](C(=O)NCC(=O)N[C@@H](Cc1c[nH]c2ccccc12)C(=O)N[C@@H](CC(C)C)C(=O)NCC(=O)N[C@@H](CCCCN)C(=O)N[C@H](C(=O)N[C@@H](Cc1ccccc1)C(N)=O)C(C)C)C(C)C)C(C)C` [FLREFHKWIERVVGWLGKVF], the minimum inhibitory concentration (MIC) is 32 µM (≈ 81.5 µg/mL) in [12], at least 256 µM in experiment [13], at least 32 µM in experiment [14] and 21.3 µM (≈ 54.3 µg/mL) in experiment [15].
As to `CC(C)C[C@H](NC(=O)[C@H](CCCN=C(N)N)NC(=O)[C@H](CCCN=C(N)N)NC(=O)[C@H](CC(C)C)NC(=O)[C@H](CCCN=C(N)N)NC(=O)[C@H](CCCN=C(N)N)NC(=O)[C@H](CCCN=C(N)N)NC(=O)[C@H](Cc1c[nH]c2ccccc12)NC(=O)[C@H](Cc1c[nH]c2ccccc12)NC(=O)[C@H](CCCN=C(N)N)NC(=O)[C@H](CCCN=C(N)N)NC(=O)[C@H](CCCN=C(N)N)NC(=O)[C@H](CC(C)C)NC(=O)[C@H](CCCN=C(N)N)NC(=O)[C@H](CCCN=C(N)N)NC(=O)[C@@H](N)CC(C)C)C(N)=O` [LRRLRRRWWRRRLRRL], the minimal inhibitory concentration (MIC) stood at 13.3 µM (≈ 32 µg/mL) in [16]; 6.65 µM (≈ 16 µg/mL) in experiment [17]; 6.65 µM (≈ 16 µg/mL) in experiment [18]; 3.33 µM (≈ 8 µg/mL) in [19]; 3.33 µM (≈ 8 µg/mL) in experiment [20]; 6.65 µM (≈ 16 µg/mL) in experiment [21]. For the same compound, the MIC is 3.33 µM (≈ 8 µg/mL) in experiment [6], 6.65 µM (≈ 16 µg/mL) in [22], 6.65 µM (≈ 16 µg/mL) in experiment [7] and 4.7 µM (≈ 11.3 µg/mL) in experiment [23].
For the compound `CC[C@H](C)[C@@H]1NC(=O)CNC(=O)[C@H](CCCCN)NC(=O)[C@H](Cc2ccc(O)cc2)NC(=O)[C@@H]2CSSC[C@H](NC1=O)C(=O)N[C@@H](Cc1ccccc1)C(=O)N[C@@H](CCCCN)C(=O)N[C@@H](CCCCN)C(=O)N[C@H](C(=O)N[C@@H](CCCCN)C(N)=O)CSSC[C@H](NC(=O)[C@H](Cc1ccccc1)NC(=O)[C@@H](N)CCCN=C(N)N)C(=O)N[C@@H](Cc1c[nH]c3ccccc13)C(=O)N[C@@H](CCCCN)C(=O)N[C@@H](C(C)C)C(=O)N2` [RFCWKVCYKGICFKKCK], the MIC worked out at 1.87 µM (≈ 3.99 µg/mL) in [24]; 7.5 µM (≈ 16 µg/mL) against Candida dubliniensis; 15 µM (≈ 32 µg/mL) in the experiment with Candida albicans 17-88; 1.87 µM (≈ 3.99 µg/mL) in the experiment with Pseudomonas aeruginosa; 1.87 µM (≈ 3.99 µg/mL) in experiment [25]; 15 µM (≈ 32 µg/mL) with Candida parapsilosis. For the same compound, the minimum inhibitory concentration (MIC) against Candida albicans is 10.6 µM (≈ 22.7 µg/mL); in experiment [26], 3.74 µM (≈ 7.98 µg/mL); against Debaryomyces hansenii, 7.5 µM (≈ 16 µg/mL); against Candida glabrata it was 15 µM (≈ 32 µg/mL); in experiment [27] it was 1.87 µM (≈ 3.99 µg/mL); in experiment [28] it was 1.87 µM (≈ 3.99 µg/mL). Further, the minimal inhibitory concentration (MIC) stood at 1.87 µM (≈ 3.99 µg/mL) against Cutibacterium acnes; 7.47 µM (≈ 16 µg/mL) in experiment [29]; 10.6 µM (≈ 22.7 µg/mL) against Candida krusei; 7.47 µM (≈ 16 µg/mL) in [30]; 1.87 µM (≈ 3.99 µg/mL) with Staphylococcus aureus MR; 2.65 µM (≈ 5.66 µg/mL) in the experiment with Candida tropicalis. Further, the minimum inhibitory concentration (MIC) is 3.74 µM (≈ 7.98 µg/mL) in [31]; 3.74 µM (≈ 7.98 µg/mL) in experiment [32]; 3.7 µM (≈ 7.9 µg/mL) with Kluyveromyces lactis; 3.74 µM (≈ 7.98 µg/mL) in the experiment on Acinetobacter baumannii; 3.74 µM (≈ 7.98 µg/mL) in [33]; 0.934 µM (≈ 2 µg/mL) in experiment [34]. Also, the minimal inhibitory concentration (MIC) was determined as 2.64 µM (≈ 5.64 µg/mL) against Klebsiella pneumoniae, 3.74 µM (≈ 7.98 µg/mL) in the experiment with Enterobacter cloacae, 7.47 µM (≈ 16 µg/mL) in experiment [35] and 2.64 µM (≈ 5.64 µg/mL) against Staphylococcus aureus.
